The values that follow come from patent publication US9877969B2, “Treatments with triazines” (CEVA SANTE ANIMALE, priority 2012, dated 2018).

What all share (assay type): in vivo
Data set [1] deals with Isospora suis. As to the kind of experiment: Anti-coccidial efficacy in piglets orally challenged with Isospora suis (Example B). The following applies: single i.m. 20 or 40 mg/kg (G1, G2). The procedure: (§1) • Group 1: 10 piglets 2 days old were injected with one intramuscular dose of toltrazuril C629 (dose=20 mg toltrazuril per kg body weight equivalent to 0.4 mL/Kg body weight) on SD0. • Group 2: 11 piglets 2 days old were injected with one intramuscular dose of toltrazuril C629 (dose=40 mg toltrazuril per kg body weight equivalent to 0.8 mL/kg body weight) on SD0. • Group 3: 9 piglets 2 days old were dosed orally with the standard commercial formulation of toltrazuril, Cevazuril® (dose=20 mg toltrazuril per kg body weight equivalent to 0.4 mL/Kg body weight) on SD0. • Group 4: 8 piglets, left untreated.
(§2) All four (4) groups of piglets were injected on SD0 with iron injection (Gleptosil®) at the dose rate of 1 ml per piglet. 3 days after treatment (on SD3), the piglets were orally challenged with a characterized strain of Isospora suis.
(§3) The following study parameters were used to assess the efficacy of the test products: • Local and general tolerance (for Groups 1 and 2); • Occurrence of diarrhea and fecal consistency; • Oocyst excretion; • Body weight development; and • Serum concentrations of toltrazuril and its metabolite toltrazuril sulfone (e.g., ponazuril) in Groups 1, 2 and 3. Results

Data set [2] can be described thus: Local and general tolerance in 2-day-old piglets (Example B). The following applies: all tested doses (i.m. 20 and 40 mg/kg). How it is done: as §1, §2, §3
A short description of data set [3]: Local and general tolerance of a single intramuscular injection in 3-day-old piglets (Example A). How it is done:
(§4) This target animal safety and efficacy study was conducted on a farm with a known history of cocciodiosis. The main objective was to study the safety and efficacy of intramuscular injection of toltrazuril in comparison to the standard oral application. • Group 1: 8 piglets 3 days old were injected by a single intramuscular dose of toltrazuril (dose=20 mg toltrazuril per kg body weight equivalent to 0.4 mL/kg body weight) on SD0. • Group 2: 8 piglets 3 days old were injected by one intramuscular dose of toltrazuril (60 mg toltrazuril per kg body weight equivalent to 1.2 mL/Kg body weight) on SD0. • Group 3: 8 piglets 3 days old were dosed orally with the standard commercial formulation of toltrazuril, Cevazuril® (dose=20 mg toltrazuril per kg body weight equivalent to 0.4 mL/Kg body weight) on SD0. • Group 4: 12 piglets 3 days old, left untreated.
(§5) All four (4) groups of piglets were injected on SD0 with iron (Gleptosil®) at the dose rate of 1 ml per piglet.
(§6) The local and general tolerances, as well as body weight development, were assessed.

A short description of data set [4]: Pharmacokinetics: serum concentrations of toltrazuril and toltrazuril sulfone in 2-day-old piglets (Example B). The note with it: after intramuscular application. The procedure: as §1, §2, §3
A short description of data set [5]: Body weight development of piglets on a farm with a known history of coccidiosis (Example A). The procedure:
as §4, §5, §6

For `Cc1cc(-n2c(=O)[nH]c(=O)n(C)c2=O)ccc1Oc1ccc(SC(F)(F)F)cc1` [toltrazuril], in data set [1] (Isospora suis challenge on SD3), the Fecal consistency result is recorded as “unchanged” and the Oocyst excretion entry is recorded as “No oocyst excretion”. Moreover, the “Weight gain versus control animals (G4)” value in data set [1] (infected animals) is given as “gained more weight than the control animals”. Further, the Tolerance result in data set [2] is “well tolerated”. The “Time to disappearance of local reaction (edema) post injection” value in data set [3] (intramuscular 1.2 mL/Kg body weight) was “less than 1 week”. Besides, the Local reaction result in data set [3] (intramuscular 1.2 mL/Kg body weight (60 mg/kg)) was “limited local reaction (edema) in some piglets”. In data set [3] (single intramuscular doses up to 60 mg/kg, 3-day-old piglets), the General tolerance entry is reported as “well tolerated”. The Pain at injection entry in data set [3] (single intramuscular injection, 3-day-old piglets) is reported as “No pain”. Besides, the Absorption result in data set [4] is given as “well absorbed”. The “Weight gain versus control non-treated piglets” value in data set [5] (intramuscularly treated piglets, at SD0+29 days) is recorded as “+2 kg”. Besides, in data set [5] (treated piglets), the Body weight development result is listed as “normal”.
